Test results published in patent publication US20250268884A1, “Deuterated Domperidone for Treating Gastroparesis” (CinDome Pharma, Inc., priority 2022, published 2025).

What was measured:
[1] = test system: adults with idiopathic or diabetic gastroparesis; assay: ANMS GCSI-DD total and subscale scores, protocol-specified scoring method, Phase 2a; format: in vivo, human; parameters: key to ANMS GCSI-DD total score, Day 14/EOT, mean / ANMS GCSI-DD nausea/vomiting subscale score, Day 14/EOT, mean / ANMS GCSI-DD postprandial fullness/early satiety subscale score, Day 14/EOT, mean / ANMS GCSI-DD bloating subscale score, Day 14/EOT, mean: symptoms rated 0 (none) to 4 (very severe)
Description: Subjects were Evaluated as Follows: • Days −28 to −11: Screening procedures were performed. The ANMS GCSI-DD questionnaire was completed daily for at least 14 days prior to randomization (Day 1); • Days −10 to −3: The ANMS GCSI-DD questionnaire was completed daily. A GEBT was performed on a single day within this window, with breath samples obtained twice prior to consumption of a standardized, carbon-13 (^13C)-enriched meal and then at 45, 90, 120, 150, 180, and 240 minutes after meal consumption after an 8-hour fast. […] On Day 14 (±2 days), the PAGI-SYM and Clinical Grading Assessment questionnaires were completed prior to the final dose of study drug. • A GEBT was administered 30 minutes after study drug administration on Day 14 (±2 days). Breath samples were obtained twice prior to ^13C-enriched meal consumption and then at 45, 90, 120, 150, 180, and 240 minutes after meal consumption after an 8-hour fast. If a subject withdrew from the study prior to the Day 14 (±2 days) GEBT, attempts should have been made to perform a GEBT on the last day of study drug administration. Clinical Grading Assessment Scales were also performed.
The ANMS GCSI-DD covers 5 core relevant symptoms of gastroparesis: nausea, early satiety, postprandial fullness, upper abdominal pain, and vomiting. Bloating is included as an exploratory symptom. Symptoms are rated on a severity numeric response scale from 0 (none) to 4 (very severe). Vomiting is captured on a frequency response scale and scored as follows: 0 for no episodes, 1 for 1 episode, 2 for 2 episodes, 3 for 3 episodes, and 4 for 4 or more episodes. Subjects were asked to recall symptoms over the previous 24 hours and complete the ANMS GCSI-DD patient-reported symptom questionnaire for at least 14 days prior to randomization, on the day of randomization, and daily from Days 1 to 14 (±2 days).

[2] = test system: adults with idiopathic or diabetic gastroparesis; assay: Clinical Grading Assessment Scale / CPGAS, Day 14, Phase 2a; format: in vivo, human; settings: Day 14, ITT; for CPGAS score, investigator, mean (SD) / CPGAS score, subject, mean (SD): scale +7 to −7
Source text: For assessment of global clinical response, the following question was utilized at Day 14: “In thinking about the last 2 weeks, how would you say your stomach/gastroparesis-related problems/symptoms have been compared to the period before you started treatment on this study?” Responses were the following: improved, no change, or worsened. Subjects were asked to quantify their therapeutic response using the Clinical Patient Grading Assessment Scale. Subjects picked a number over a range (+7=completely better; 0=no change; −7=very much worse) that best answered the question.

[3] = test system: adults with idiopathic or diabetic gastroparesis; assay: 12-lead ECG QTcF safety assessment, Phase 2a; format: in vivo, human
Description: Safety was evaluated through assessments of Aes, vital signs, physical examinations, clinical laboratory evaluations (including prolactin), and ECG findings.

[4] = test system: adults with idiopathic or diabetic gastroparesis; settings: in vivo
Description: Safety was evaluated through assessments of Aes, vital signs, physical examinations, clinical laboratory evaluations (including prolactin), and ECG findings. Additionally, a single, optional PGx blood sample may have been collected at any time during the subject's participation in the study.
Safety variables included Aes, clinical laboratory results (including prolactin), vital signs, ECGs, and physical examination findings.

[5] = test system: cardiac conduction (QRS interval) in healthy subjects; settings: human, in vivo
Description: Categorical T-wave morphology analysis and measurement of PR and QRS intervals were fully performed manually using a semi-automated process in 3 of the 10 ECG replicates at each time point. Final quality control and diagnostic interpretations were performed by the study cardiologist.
An unstructured covariance structure was used to specify the repeated measures at post-dose time points for subject within treatment period. The model also included a subject-specific random effect.

healthy subjects = settings: in vivo
Description: Categorical T-wave morphology analysis and measurement of PR and QRS intervals were fully performed manually using a semi-automated process in 3 of the 10 ECG replicates at each time point.
Treatment A: 30 mg CIN-102 [representing approximate steady-state therapeutic exposures in subject population]; Treatment B: 100 mg CIN-102 [representing potential steady-state supratherapeutic exposures in subjects]; Treatment C: 400 mg open-label moxifloxacin; Treatment D: CIN-102 placebo. A subject can appear in more than 1 category. The denominator (Total) is defined as the number of subjects or time points in the QT/QTc population for each treatment.

[6] = 10 mg dose, healthy subjects

## [2H]c1c([2H])c([2H])c2c([nH]c(=O)n2CCCN2CCC(n3c(=O)[nH]c4cc(Cl)ccc43)CC2)c1[2H] [Deudomperidone, 1-{3-[4-(5-chloro-2-oxo-2,3-dihydro-1H-1,3-benzodiazol-1-yl)piperidin-1yl]propyl}-2,3-dihydro(4,5,6,7-D4)-1H-1,3-benzodiazol-2-one]
[1]; 5 mg BID, Cohort 3, ITT
  ANMS GCSI-DD bloating subscale score, Day 14/EOT, mean: 2.33
  ANMS GCSI-DD bloating subscale score, change from baseline to Day 14/EOT: −0.37
  ANMS GCSI-DD bloating subscale score, percent change from baseline to Day 14/EOT: −16.16%
  ANMS GCSI-DD nausea/vomiting subscale score, Day 14/EOT, mean: 1.00
  ANMS GCSI-DD nausea/vomiting subscale score, change from baseline to Day 14/EOT: −0.52
  ANMS GCSI-DD nausea/vomiting subscale score, percent change from baseline to Day 14/EOT: −41.08%
  ANMS GCSI-DD postprandial fullness/early satiety subscale score, Day 14/EOT, mean: 2.00
  ANMS GCSI-DD postprandial fullness/early satiety subscale score, change from baseline to Day 14/EOT: −0.78
  ANMS GCSI-DD postprandial fullness/early satiety subscale score, percent change from baseline to Day 14/EOT: −29.47%
  ANMS GCSI-DD total score, Day 14/EOT, mean: 1.78
  ANMS GCSI-DD total score, change from baseline to Day 14/EOT: −0.56
  ANMS GCSI-DD total score, percent change from baseline to Day 14/EOT: −26.84%
[1]; 10 mg BID, Cohort 1, ITT
  ANMS GCSI-DD bloating subscale score, Day 14/EOT, mean: 1.76
  ANMS GCSI-DD bloating subscale score, change from baseline to Day 14/EOT: −1.08
  ANMS GCSI-DD bloating subscale score, percent change from baseline to Day 14/EOT: −41.78%
  ANMS GCSI-DD nausea/vomiting subscale score, Day 14/EOT, mean: 0.74
  ANMS GCSI-DD nausea/vomiting subscale score, change from baseline to Day 14/EOT: −0.89
  ANMS GCSI-DD nausea/vomiting subscale score, percent change from baseline to Day 14/EOT: −52.41%
  ANMS GCSI-DD postprandial fullness/early satiety subscale score, Day 14/EOT, mean: 1.71
  ANMS GCSI-DD postprandial fullness/early satiety subscale score, change from baseline to Day 14/EOT: −1.16
  ANMS GCSI-DD postprandial fullness/early satiety subscale score, percent change from baseline to Day 14/EOT: −41.38%
  ANMS GCSI-DD total score, Day 14/EOT, mean: 1.40
  ANMS GCSI-DD total score, change from baseline to Day 14/EOT: −1.04
  ANMS GCSI-DD total score, percent change from baseline to Day 14/EOT: −43.64%
[1]; 20 mg QD, Cohort 2, ITT
  ANMS GCSI-DD bloating subscale score, Day 14/EOT, mean: 1.47
  ANMS GCSI-DD bloating subscale score, change from baseline to Day 14/EOT: −1.40
  ANMS GCSI-DD bloating subscale score, percent change from baseline to Day 14/EOT: −51.82%
  ANMS GCSI-DD nausea/vomiting subscale score, Day 14/EOT, mean: 0.40
  ANMS GCSI-DD nausea/vomiting subscale score, change from baseline to Day 14/EOT: −1.20
  ANMS GCSI-DD nausea/vomiting subscale score, percent change from baseline to Day 14/EOT: −67.94%
  ANMS GCSI-DD postprandial fullness/early satiety subscale score, Day 14/EOT, mean: 1.37
  ANMS GCSI-DD postprandial fullness/early satiety subscale score, change from baseline to Day 14/EOT: −1.38
  ANMS GCSI-DD postprandial fullness/early satiety subscale score, percent change from baseline to Day 14/EOT: −50.14%
  ANMS GCSI-DD total score, Day 14/EOT, mean: 1.08
  ANMS GCSI-DD total score, change from baseline to Day 14/EOT: −1.33
  ANMS GCSI-DD total score, percent change from baseline to Day 14/EOT: −55.24%
[1]; all deudomperidone treatment groups, placebo also decreased
  ANMS GCSI-DD total score and all subscale scores at Day 14/End of Treatment: decreased from baseline
[2]; 5 mg BID, N′ = 9
  Clinical Grading Assessment Scale, investigator response: Improved: 6 (66.7) n (%)
  Clinical Grading Assessment Scale, investigator response: No change: 3 (33.3) n (%)
  Clinical Grading Assessment Scale, investigator response: Worsened: 0 (0.0) n (%)
  Clinical Grading Assessment Scale, subject response: Improved: 5 (55.6) n (%)
  Clinical Grading Assessment Scale, subject response: No change: 4 (44.4) n (%)
  Clinical Grading Assessment Scale, subject response: Worsened: 0 (0.0) n (%)
[2]; 5 mg BID
  CPGAS score, investigator, mean (SD): 2.2 (2.05)
  CPGAS score, subject, mean (SD): 2.1 (2.26)
[2]; 10 mg BID, N′ = 23
  Clinical Grading Assessment Scale, subject response: Improved: 17 (73.9) n (%)
  Clinical Grading Assessment Scale, subject response: No change: 5 (21.7) n (%)
  Clinical Grading Assessment Scale, subject response: Worsened: 1 (4.3) n (%)
[2]; 10 mg BID, N′ = 30
  Clinical Grading Assessment Scale, investigator response: Improved: 22 (73.3) n (%)
  Clinical Grading Assessment Scale, investigator response: No change: 8 (26.7) n (%)
  Clinical Grading Assessment Scale, investigator response: Worsened: 0 (0.0) n (%)
[2]; 10 mg BID
  CPGAS score, investigator, mean (SD): 2.5 (1.98)
  CPGAS score, subject, mean (SD): 3.0 (2.70)
[2]; 20 mg QD, N′ = 14
  Clinical Grading Assessment Scale, subject response: Improved: 9 (64.3) n (%)
  Clinical Grading Assessment Scale, subject response: No change: 5 (35.7) n (%)
  Clinical Grading Assessment Scale, subject response: Worsened: 0 (0.0) n (%)
[2]; 20 mg QD, N′ = 15
  Clinical Grading Assessment Scale, investigator response: Improved: 11 (73.3) n (%)
  Clinical Grading Assessment Scale, investigator response: No change: 4 (26.7) n (%)
  Clinical Grading Assessment Scale, investigator response: Worsened: 0 (0.0) n (%)
[2]; 20 mg QD
  CPGAS score, investigator, mean (SD): 2.9 (2.26)
  CPGAS score, subject, mean (SD): 2.9 (2.62)
[3]; 10 mg BID, Day 14 at 4 hours post-dose
  subjects with ≥6% change from baseline in QTcF: 1 (3.6%) subjects (%)
[3]; 10 mg BID, Day 14 at 6 hours post-dose
  subjects with ≥6% change from baseline in QTcF: 1 (4.3%) subjects (%)
[3]; 20 mg QD, Day 14 at 4 hours post-dose
  subjects with ≥6% change from baseline in QTcF: 3 (20.0%) subjects (%)
[3]; 20 mg QD, Day 14 at 6 hours post-dose
  subjects with ≥6% change from baseline in QTcF: 2 (16.7%) subjects (%)
[3]; 1 subject, alert at 4 and 6 hours post-dose on Day 14
  QTcF of subject meeting alert criteria (never increased above): ≤ 426 ms
[3]; Day 7, baseline QTcF average 430 msec
  QTcF of second subject meeting alert criteria: 474 ms
[3]; all dose groups
  prolongations of the QTcF interval: no clinically meaningful prolongations
[4]
  tolerability of multiple doses: generally well tolerated
[5]
  LS mean placebo-corrected ΔQRS (ΔΔQRS): ±1.1 ms
Healthy subjects
  PR or QRS outliers: no PR or QRS outliers
  treatment-emergent U waves: no treatment-emergent U waves
[6]
  Cmax lower than the same oral dose domperidone: approximately 50%
